# Patent US7750003B2, “Compounds-943” (AstraZeneca AB, priority 2006, dated 2010)
# Test system: phosphorylation of Serine 473 in Akt in MDA-MB-468 human breast adenocarcinoma cells
# Assay: In vitro phospho-Ser473 Akt assay (Test (c))
# Assay type: cell-based
# Settings: Homo sapiens, MDA-MB-468, 2 h, MDA-MB-468 cells, 2 hours incubation; read-out: Test (c): IC50 versus Serine 473 in Akt
# Description: (c) In Vitro Phospho-Ser473 Akt Assay
# This assay determines the ability of test compounds to inhibit phosphorylation of Serine 473 in Akt as assessed using Acumen Explorer technology (Acumen Bioscience Limited), a plate reader that can be used to rapidly quantitate features of images generated by laser-scanning.
# A MDA-MB-468 human breast adenocarcinoma cell line (LGC Promochem, Teddington, Middlesex, UK, Catalogue No. HTB-132) was routinely maintained at 37° C. with 5% CO2 up to a confluency of 70-90% in DMEM containing 10% heat-inactivated FCS and 1% L-glutamine.
# For the assay, the cells were detached from the culture flask using ‘Accutase’ (Innovative Cell Technologies Inc., San Diego, Calif., USA; Catalogue No. AT104) using standard tissue culture methods and resuspended in media to give 1.7×10^5 cells per mL. Aliquots (90 μl) were seeded into each of the inner 60 wells of a black Packard 96 well plate (PerkinElmer, Boston, Mass., USA; Catalogue No. 6005182) to give a density of 15000 cells per well. Aliquots (90 μl) of culture media were placed in the outer wells to prevent edge effects. The cells were incubated overnight at 37° C. with 5% CO2 to allow them to adhere.
# On day 2, the cells were treated with test compounds and incubated for 2 hours at 37° C. with 5% CO2. Test compounds were prepared as 10 mM stock solutions in DMSO and serially diluted as required with growth media to give a range of concentrations that were 10-fold the required final test concentrations. Aliquots (10 μl) of each compound dilution were placed in a well (in triplicate) to give the final required concentrations. As a minimum response control, each plate contained wells having a final concentration of 100 μM LY294002 (Calbiochem, Beeston, UK, Catalogue No. 440202). As a maximum response control, wells contained 1% DMSO instead of test compound. Following incubation, the contents of the plates were fixed by treatment with a 1.6% aqueous formaldehyde solution (Sigma, Poole, Dorset, UK, Catalogue No. F1635) at room temperature for 1 hour.
# All subsequent aspiration and wash steps were carried out using a Tecan 96 well plate washer (aspiration speed 10 mm/sec). The fixing solution was removed and the contents of the plates were washed with phosphate-buffered saline (PBS; 50 μl; Gibco, Catalogue No. 10010015). The contents of the plates were treated for 10 minutes at room temperature with an aliquot (50 μl) of a cell permeabilisation buffer consisting of a mixture of PBS and 0.5% Tween-20. The ‘permeabilisation’ buffer was removed and non-specific binding sites were blocked by treatment for 1 hour at room temperature of an aliquot (50 μl) of a blocking buffer consisting of 5% dried skimmed milk [‘Marvel’ (registered trade mark); Premier Beverages, Stafford, GB] in a mixture of PBS and 0.05% Tween-20. The ‘blocking’ buffer was removed and the cells were incubated for 1 hour at room temperature with rabbit anti phospho-Akt (Ser473) antibody solution (50 μl per well; Cell Signalling, Hitchin, Herts, U.K., Catalogue No 9277) that had been diluted 1:500 in ‘blocking’ buffer. Cells were washed three times in a mixture of PBS and 0.05% Tween-20. Subsequently, cells were incubated for 1 hour at room temperature with Alexafluor488 labelled goat anti-rabbit IgG (50 μl per well; Molecular Probes, Invitrogen Limited, Paisley, UK, Catalogue No. A11008) that had been diluted 1:500 in ‘blocking’ buffer. Cells were washed 3 times with a mixture of PBS and 0.05% Tween-20. An aliquot of PBS (50 μl) was added to each well and the plates were sealed with black plate sealers and the fluorescence signal was detected and analysed.
# Fluorescence dose response data obtained with each compound were analysed and the degree of inhibition of Serine 473 in Akt was expressed as an IC50 value.
row,SMILES,IC50 [nM]
1,"C[C@H]1COCCN1c1cc(CS(=O)(=O)CCO)nc(-c2ccc(NC(=O)NCc3cnn(C)c3)cc2)n1 [Example 53b, 1-[4-[4-(2-hydroxyethylsulfonylmethyl)-6-[(3S)-3-methylmorpholin-4-yl]pyrimidin-2-yl]phenyl]-3-[(1-methylpyrazol-4-yl)methyl]urea]",3000
2,"COCc1cc(N2CCOC[C@@H]2C)nc(-c2ccc(NC(=O)NC3CC3)cc2)n1 [Example 54, 3-Cyclopropyl-1-[4-[4-(methoxymethyl)-6-[(3S)-3-methylmorpholin-4-yl]pyrimidin-2-yl]phenyl]urea]",110
3,"CNC(=O)Nc1ccc(-c2nc(N3CCOC[C@@H]3C)cc(C(C)(C)S(=O)(=O)C3CC3)n2)cc1 [Example 57, 1-[4-[4-(2-Cyclopropylsulfonylpropan-2-yl)-6-[(3S)-3-methylmorpholin-4-yl]pyrimidin-2-yl]phenyl]-3-methyl-urea]",250
4,"C[C@H]1COCCN1c1cc(C(C)(C)S(=O)(=O)C2CC2)nc(-c2ccc(NC(=O)NC(C)(C)CO)cc2)n1 [Example 57a, 1-[4-[4-(2-cyclopropylsulfonylpropan-2-yl)-6-[(3S)-3-methylmorpholin-4-yl]pyrimidin-2-yl]phenyl]-3-(1-hydroxy-2-methyl-propan-2-yl)urea]",64
5,"C[C@H]1COCCN1c1cc(C(C)(C)S(=O)(=O)C2CC2)nc(-c2ccc(NC(=O)Nc3cnn(C)c3)cc2)n1 [Example 57c, 1-[4-[4-(2-cyclopropylsulfonylpropan-2-yl)-6-[(3S)-3-methylmorpholin-4-yl]pyrimidin-2-yl]phenyl]-3-(1-methylpyrazol-4-yl)urea]",360
6,"CNC(=O)Nc1ccc(-c2nc(CS(=O)(=O)C3CC3)cc(N3CCOC[C@@H]3C)n2)cc1 [Example 57d, 1-[4-[4-(cyclopropylsulfonylmethyl)-6-[(3S)-3-methylmorpholin-4-yl]pyrimidin-2-yl]phenyl]-3-methyl-urea]",840
7,"C[C@H]1COCCN1c1cc(CS(=O)(=O)C2CC2)nc(-c2ccc(NC(=O)NC(C)(C)CO)cc2)n1 [Example 57e, 1-[4-[4-(cyclopropylsulfonylmethyl)-6-[(3S)-3-methylmorpholin-4-yl]pyrimidin-2-yl]phenyl]-3-(1-hydroxy-2-methyl-propan-2-yl)urea]",380
8,"C[C@H]1COCCN1c1cc(CS(=O)(=O)C2CC2)nc(-c2ccc(NC(=O)NCCN(C)C)cc2)n1 [Example 57f, 1-[4-[4-(cyclopropylsulfonylmethyl)-6-[(3S)-3-methylmorpholin-4-yl]pyrimidin-2-yl]phenyl]-3-(2-dimethylaminoethyl)urea]",720
9,"C[C@H]1COCCN1c1cc(CS(=O)(=O)C2CC2)nc(-c2ccc(NC(=O)Nc3cnn(C)c3)cc2)n1 [Example 57g, 1-[4-[4-(cyclopropylsulfonylmethyl)-6-[(3S)-3-methylmorpholin-4-yl]pyrimidin-2-yl]phenyl]-3-(1-methylpyrazol-4-yl)urea]",95
10,"C[C@H]1COCCN1c1cc(C(C)(C)S(=O)(=O)C2CC2)nc(-c2ccc(NC(=O)NC3CCC3)cc2)n1 [Example 57h, 3-cyclobutyl-1-[4-[4-(2-cyclopropylsulfonylpropan-2-yl)-6-[(3S)-3-methylmorpholin-4-yl]pyrimidin-2-yl]phenyl]urea]",66
11,"C[C@H]1COCCN1c1cc(C(C)(C)S(=O)(=O)C2CC2)nc(-c2ccc(NC(=O)NCCO)cc2)n1 [Example 57i, 1-[4-[4-(2-cyclopropylsulfonylpropan-2-yl)-6-[(3S)-3-methylmorpholin-4-yl]pyrimidin-2-yl]phenyl]-3-(2-hydroxyethyl)urea]",270
12,"CCNC(=O)Nc1ccc(-c2nc(CS(=O)(=O)C3CC3)cc(N3CCOC[C@@H]3C)n2)cc1 [Example 57j, 1-[4-[4-(cyclopropylsulfonylmethyl)-6-[(3S)-3-methylmorpholin-4-yl]pyrimidin-2-yl]phenyl]-3-ethyl-urea]",70
13,"CCNC(=O)Nc1ccc(-c2nc(N3CCOC[C@@H]3C)cc(C(C)(C)S(=O)(=O)C3CC3)n2)cc1 [Example 57k, 1-[4-[4-(2-cyclopropylsulfonylpropan-2-yl)-6-[(3S)-3-methylmorpholin-4-yl]pyrimidin-2-yl]phenyl]-3-ethyl-urea]",340
14,"C[C@H]1COCCN1c1cc(CS(=O)(=O)C2CC2)nc(-c2ccc(NC(=O)NC3CCC3)cc2)n1 [Example 57l, 3-cyclobutyl-1-[4-[4-(cyclopropylsulfonylmethyl)-6-[(3S)-3-methylmorpholin-4-yl]pyrimidin-2-yl]phenyl]urea]",88
15,"CC(C)S(=O)(=O)Cc1cc(N2CCOC[C@@H]2C)nc(-c2ccc(NC(=O)NC3CCC3)cc2)n1 [Example 60, 3-Cyclobutyl-1-[4-[4-[(3S)-3-methylmorpholin-4-yl]-6-(propan-2-ylsulfonylmethyl)pyrimidin-2-yl]phenyl]urea]",1000

# Next, values leading:
row,IC50 [nM],SMILES
1,37,"C[C@H]1COCCN1c1cc(CS(=O)(=O)CCO)nc(-c2ccc(NC(=O)NC3CCC3)cc2)n1 [Example 59a, 3-cyclobutyl-1-[4-[4-(2-hydroxyethylsulfonylmethyl)-6-[(3S)-3-methylmorpholin-4-yl]pyrimidin-2-yl]phenyl]urea]"
2,3300,"CCCNC(=O)Nc1ccc(-c2nc(CS(=O)(=O)C(C)C)cc(N3CCOC[C@@H]3C)n2)cc1 [Example 60a, 3-[4-[4-[(3S)-3-methylmorpholin-4-yl]-6-(propan-2-ylsulfonylmethyl)pyrimidin-2-yl]phenyl]-1-propyl-urea]"
3,1800,"CC(C)CNC(=O)Nc1ccc(-c2nc(CS(=O)(=O)C(C)C)cc(N3CCOC[C@@H]3C)n2)cc1 [Example 60b, 1-[4-[4-[(3S)-3-methylmorpholin-4-yl]-6-(propan-2-ylsulfonylmethyl)pyrimidin-2-yl]phenyl]-3-(2-methylpropyl)urea]"
4,770,"CC(C)S(=O)(=O)Cc1cc(N2CCOC[C@@H]2C)nc(-c2ccc(NC(=O)NCCCO)cc2)n1 [Example 60c, 3-(3-hydroxypropyl)-1-[4-[4-[(3S)-3-methylmorpholin-4-yl]-6-(propan-2-ylsulfonylmethyl)pyrimidin-2-yl]phenyl]urea]"
5,590,"CC(C)S(=O)(=O)Cc1cc(N2CCOC[C@@H]2C)nc(-c2ccc(NC(=O)Nc3ccc(C(F)(F)F)cc3)cc2)n1 [Example 60d, 1-[4-[4-[(3S)-3-methylmorpholin-4-yl]-6-(propan-2-ylsulfonylmethyl)pyrimidin-2-yl]phenyl]-3-[4-(trifluoromethyl)phenyl]urea]"
6,1300,"CC(C)S(=O)(=O)Cc1cc(N2CCOC[C@@H]2C)nc(-c2ccc(NC(=O)Nc3ccccn3)cc2)n1 [Example 60e, 1-[4-[4-[(3S)-3-methylmorpholin-4-yl]-6-(propan-2-ylsulfonylmethyl)pyrimidin-2-yl]phenyl]-3-pyridin-2-yl-urea]"
7,870,"CC(C)NC(=O)Nc1ccc(-c2nc(CS(=O)(=O)C(C)C)cc(N3CCOC[C@@H]3C)n2)cc1 [Example 60f, 1-[4-[4-[(3S)-3-methylmorpholin-4-yl]-6-(propan-2-ylsulfonylmethyl)pyrimidin-2-yl]phenyl]-3-propan-2-yl-urea]"
8,220,"CC(C)S(=O)(=O)Cc1cc(N2CCOC[C@@H]2C)nc(-c2ccc(NC(=O)NC(C)(C)CO)cc2)n1 [Example 60g, 3-(1-hydroxy-2-methyl-propan-2-yl)-1-[4-[4-[(3S)-3-methylmorpholin-4-yl]-6-(propan-2-ylsulfonylmethyl)pyrimidin-2-yl]phenyl]urea]"
9,1900,"CC(C)S(=O)(=O)Cc1cc(N2CCOC[C@@H]2C)nc(-c2ccc(NC(=O)Nc3cnn(C)c3)cc2)n1 [Example 60h, 1-[4-[4-[(3S)-3-methylmorpholin-4-yl]-6-(propan-2-ylsulfonylmethyl)pyrimidin-2-yl]phenyl]-3-(1-methylpyrazol-4-yl)urea]"
